We go through 37 compounds from ChEMBL document CHEMBL1136606, “Design and synthesis of bicyclic pyrimidinone-based HCV NS3 protease inhibitors” (Bioorg Med Chem Lett, 2003).

Structures are written as SMILES.

NS3, sequence (A3EZJ3 whole entry): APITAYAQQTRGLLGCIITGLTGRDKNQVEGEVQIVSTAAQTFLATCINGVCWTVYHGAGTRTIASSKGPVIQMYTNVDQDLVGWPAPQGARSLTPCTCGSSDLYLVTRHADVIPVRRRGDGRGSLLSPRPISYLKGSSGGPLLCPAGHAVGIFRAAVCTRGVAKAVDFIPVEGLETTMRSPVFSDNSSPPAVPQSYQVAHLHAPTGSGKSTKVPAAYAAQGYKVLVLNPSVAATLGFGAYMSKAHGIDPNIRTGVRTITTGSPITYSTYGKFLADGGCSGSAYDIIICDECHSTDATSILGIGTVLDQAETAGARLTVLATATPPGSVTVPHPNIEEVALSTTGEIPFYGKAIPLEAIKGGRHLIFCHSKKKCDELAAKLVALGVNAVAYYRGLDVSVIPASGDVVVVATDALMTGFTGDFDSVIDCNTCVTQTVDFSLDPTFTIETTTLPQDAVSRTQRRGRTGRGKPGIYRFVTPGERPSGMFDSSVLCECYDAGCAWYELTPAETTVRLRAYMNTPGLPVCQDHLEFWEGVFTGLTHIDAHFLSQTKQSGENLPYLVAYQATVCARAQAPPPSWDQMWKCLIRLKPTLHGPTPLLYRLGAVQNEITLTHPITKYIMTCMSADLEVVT

The experiment concerns the target NS3 (Hepatitis C virus, UniProt A3EZJ3). Briefly: Inhibitory activity hepatitis C virus NS3 protease. Further details: species or system Hepacivirus hominis.
The compound `CC[C@H](NC(=O)[C@@H]1C[C@@](C)(NC(=O)NCc2ccccc2)c2ncc(NCc3cccc(C(F)(F)F)c3)c(=O)n21)B1OC2C3CC(C[C@]2(C)O1)C3(C)C` (some centres not stated) registered an IC50 of 1200 nM. `CCOC(=O)c1ccc(NC(=O)N[C@]2(C)C[C@@H](C(=O)N[C@@H](CC)B3OC4C5CC(C[C@]4(C)O3)C5(C)C)n3c2ncc(NCc2cccc(C(F)(F)F)c2)c3=O)cc1` (some centres not stated) returned an IC50 of 1100 nM.

For the compound `CC[C@H](NC(=O)[C@@H]1C[C@@](C)(NC(=O)Nc2ccc(F)cc2)c2ncc(NCc3cccc(C(F)(F)F)c3)c(=O)n21)B1OC2C3CC(C[C@]2(C)O1)C3(C)C` (some centres not stated), it took 1030 nM to reach half-maximal inhibition (IC50). As for `CC[C@H](NC(=O)[C@@H]1C[C@@](C)(NC(=O)Nc2ccccc2C)c2ncc(NCc3cccc(C(F)(F)F)c3)c(=O)n21)B1OC2C3CC(C[C@]2(C)O1)C3(C)C` (some centres not stated), the IC50 amounted to 780 nM. This IC50 and that of the compound before are within 1.5-fold of each other. For the compound `CC[C@H](NC(=O)[C@@H]1C[C@@](C)(NC(=O)Nc2ccccc2)c2ncc(NCc3cccc(C(F)(F)F)c3)c(=O)n21)B1OC2C3CC(C[C@]2(C)O1)C3(C)C` (some centres not stated), the IC50 was determined as 790 nM. The figure for `CC[C@H](NC(=O)[C@@H]1C[C@@](C)(CC(=O)Nc2ccccc2C(=O)NC)c2ncc(NCc3cccc(C(F)(F)F)c3)c(=O)n21)B1OC2C3CC(C[C@]2(C)O1)C3(C)C` (some centres not stated) is 180 nM; for `CCOC(=O)c1cccc(NC(=O)N[C@]2(C)C[C@@H](C(=O)N[C@@H](CC)B3OC4C5CC(C[C@]4(C)O3)C5(C)C)n3c2ncc(NCc2cccc(C(F)(F)F)c2)c3=O)c1` (some centres not stated) it is 1550 nM; for `CCOc1ccccc1NC(=O)N[C@]1(C)C[C@@H](C(=O)N[C@@H](CC)B2OC3C4CC(C[C@]3(C)O2)C4(C)C)n2c1ncc(NCc1cccc(C(F)(F)F)c1)c2=O` (some centres not stated) it is 160 nM. The figure for `CC[C@H](NC(=O)[C@@H]1C[C@@](C)(NC(=O)Nc2cccc(F)c2)c2ncc(NCc3cccc(C(F)(F)F)c3)c(=O)n21)B1OC2C3CC(C[C@]2(C)O1)C3(C)C` (some centres not stated) is 500 nM; for `CCOC(=O)c1ccccc1NC(=O)N[C@]1(C)C[C@@H](C(=O)N[C@@H](CC)B2OC3C4CC(C[C@]3(C)O2)C4(C)C)n2c1ncc(NCc1cccc(C(F)(F)F)c1)c2=O` (some centres not stated) it is 100 nM.

In the case of `CC[C@H](NC(=O)[C@@H]1C[C@@](C)(NC(=O)Nc2ccc(Cl)cc2)c2ncc(NCc3cccc(C(F)(F)F)c3)c(=O)n21)B1OC2C3CC(C[C@]2(C)O1)C3(C)C` (some centres not stated), the IC50 came out at 1100 nM. The figure for `CC[C@H](NC(=O)[C@@H]1C[C@@](C)(CC(=O)Nc2cccc3ccccc23)c2ncc(NCc3cccc(C(F)(F)F)c3)c(=O)n21)B1OC2C3CC(C[C@]2(C)O1)C3(C)C` (some centres not stated) is 170 nM; for `CC[C@H](NC(=O)[C@@H]1C[C@@](C)(NC(=O)Nc2ccc(SC)cc2)c2ncc(NCc3cccc(C(F)(F)F)c3)c(=O)n21)B1OC2C3CC(C[C@]2(C)O1)C3(C)C` (some centres not stated) it is 2360 nM; for `CC[C@H](NC(=O)[C@@H]1C[C@@](C)(NC(=O)Nc2ccccc2[N+](=O)[O-])c2ncc(NCc3cccc(C(F)(F)F)c3)c(=O)n21)B1OC2C3CC(C[C@]2(C)O1)C3(C)C` (some centres not stated) it is 180 nM.

`CC[C@H](NC(=O)[C@@H]1C[C@@](C)(NC(=O)Nc2ccccc2C(=O)OC)c2ncc(NCc3cccc(C(F)(F)F)c3)c(=O)n21)B1OC2C3CC(C[C@]2(C)O1)C3(C)C` (some centres not stated) showed an IC50 of 80 nM. Compound `CC[C@H](NC(=O)[C@@H]1C[C@@](C)(CC(=O)Nc2cccc(SC)c2)c2ncc(NCc3cccc(C(F)(F)F)c3)c(=O)n21)B1OC2C3CC(C[C@]2(C)O1)C3(C)C` (some centres not stated) showed an IC50 of 90 nM.

In turn, `CC[C@H](NC(=O)[C@@H]1C[C@@](C)(NC(=O)Nc2ccc(Oc3ccccc3)cc2)c2ncc(NCc3cccc(C(F)(F)F)c3)c(=O)n21)B1OC2C3CC(C[C@]2(C)O1)C3(C)C` (some centres not stated) returned an IC50 of 4740 nM. For `CC[C@H](NC(=O)[C@@H]1C[C@@](C)(NC(=O)Nc2ccccc2C(=O)O)c2ncc(NCc3cccc(C(F)(F)F)c3)c(=O)n21)B1OC2C3CC(C[C@]2(C)O1)C3(C)C` (some centres not stated), the IC50 amounted to 6400 nM. The IC50 values of the last two compounds are within 1.5-fold of each other. The figure for `CC[C@H](NC(=O)[C@@H]1C[C@@](C)(CC(=O)Nc2nccc3ccccc23)c2ncc(NCc3cccc(C(F)(F)F)c3)c(=O)n21)B1OC2C3CC(C[C@]2(C)O1)C3(C)C` (some centres not stated) is 440 nM; for `CC[C@H](NC(=O)[C@@H]1C[C@@](C)(CC(=O)Nc2ccccc2C(=O)N(C)C)c2ncc(NCc3cccc(C(F)(F)F)c3)c(=O)n21)B1OC2C3CC(C[C@]2(C)O1)C3(C)C` (some centres not stated) it is 1460 nM. The figure for `CC[C@H](NC(=O)[C@@H]1C[C@@](C)(NC(=O)Nc2ccccc2SC)c2ncc(NCc3cccc(C(F)(F)F)c3)c(=O)n21)B1OC2C3CC(C[C@]2(C)O1)C3(C)C` (some centres not stated) is 710 nM; for `CC[C@H](NC(=O)[C@@H]1C[C@@](C)(NC(=O)Nc2cccc3ccccc23)c2ncc(NCc3cccc(C(F)(F)F)c3)c(=O)n21)B1OC2C3CC(C[C@]2(C)O1)C3(C)C` (some centres not stated) it is 270 nM; for `CC[C@H](NC(=O)[C@@H]1C[C@@](C)(NC(=O)Nc2cccc(SC)c2)c2ncc(NCc3cccc(C(F)(F)F)c3)c(=O)n21)B1OC2C3CC(C[C@]2(C)O1)C3(C)C` (some centres not stated) it is 130 nM. `CC[C@H](NC(=O)[C@@H]1C[C@@](C)(NC(=O)Nc2cccc(C(=O)OC)c2)c2ncc(NCc3cccc(C(F)(F)F)c3)c(=O)n21)B1OC2C3CC(C[C@]2(C)O1)C3(C)C` (some centres not stated) registered an IC50 of 1770 nM. The figure for `CC[C@H](NC(=O)[C@@H]1C[C@@](C)(NC(=O)Nc2ccccc2-c2ccccc2)c2ncc(NCc3cccc(C(F)(F)F)c3)c(=O)n21)B1OC2C3CC(C[C@]2(C)O1)C3(C)C` (some centres not stated) is 30000 nM.

For `CC[C@H](NC(=O)[C@@H]1C[C@@](C)(CC(=O)Nc2ccccc2C(N)=O)c2ncc(NCc3cccc(C(F)(F)F)c3)c(=O)n21)B1OC2C3CC(C[C@]2(C)O1)C3(C)C` (some centres not stated), the IC50 was found to be 150 nM. `CC[C@H](NC(=O)[C@@H]1C[C@@](C)(CC(=O)Nc2ccccc2)c2ncc(NCc3cccc(C(F)(F)F)c3)c(=O)n21)B1OC2C3CC(C[C@]2(C)O1)C3(C)C` (some centres not stated): it took 170 nM to reach half-maximal inhibition (IC50). Turning to `CC[C@H](NC(=O)[C@@H]1C[C@@](C)(CC(=O)Nc2ccccc2[N+](=O)[O-])c2ncc(NCc3cccc(C(F)(F)F)c3)c(=O)n21)B1OC2C3CC(C[C@]2(C)O1)C3(C)C` (some centres not stated), the IC50 came out at 2530 nM. The figure for `CC[C@H](NC(=O)[C@@H]1C[C@@](C)(NC(=O)c2ccccc2)c2ncc(NCc3cccc(C(F)(F)F)c3)c(=O)n21)B1OC2C3CC(C[C@]2(C)O1)C3(C)C` (some centres not stated) is 3400 nM. The figure for `CC[C@H](NC(=O)[C@@H]1C[C@@](C)(NC(=O)Nc2ccccc2Cl)c2ncc(NCc3cccc(C(F)(F)F)c3)c(=O)n21)B1OC2C3CC(C[C@]2(C)O1)C3(C)C` (some centres not stated) is 370 nM.

On to `CC[C@H](NC(=O)[C@@H]1CCc2ncc(NCc3cccc(C(F)(F)F)c3)c(=O)n21)B1OC2C3CC(C[C@]2(C)O1)C3(C)C` (some centres not stated), for which the midpoint of inhibition, the IC50, lay at 7000 nM.

`CC[C@H](NC(=O)[C@@H]1C[C@@](C)(NC(=O)Nc2ccccc2Oc2ccccc2)c2ncc(NCc3cccc(C(F)(F)F)c3)c(=O)n21)B1OC2C3CC(C[C@]2(C)O1)C3(C)C` (some centres not stated) registered an IC50 of 300 nM. In turn, `CC[C@H](NC(=O)[C@@H]1C[C@@](C)(NC(=O)Nc2ccccc2OC)c2ncc(NCc3cccc(C(F)(F)F)c3)c(=O)n21)B1OC2C3CC(C[C@]2(C)O1)C3(C)C` (some centres not stated) yielded an IC50 of 360 nM. The figure for `CC[C@H](NC(=O)[C@@H]1C[C@@](C)(NC(=O)Cc2ccccc2)c2ncc(NCc3cccc(C(F)(F)F)c3)c(=O)n21)B1OC2C3CC(C[C@]2(C)O1)C3(C)C` (some centres not stated) is 2400 nM; for `CC[C@H](NC(=O)[C@@H]1C[C@@](C)(CC(=O)Nc2ccccc2C(=O)OC)c2ncc(NCc3cccc(C(F)(F)F)c3)c(=O)n21)B1OC2C3CC(C[C@]2(C)O1)C3(C)C` (some centres not stated) it is 100 nM; for `CC[C@H](NC(=O)[C@@H]1C[C@@](C)(CC(=O)Nc2ccccc2OC)c2ncc(NCc3cccc(C(F)(F)F)c3)c(=O)n21)B1OC2C3CC(C[C@]2(C)O1)C3(C)C` (some centres not stated) it is 200 nM. In the case of `CC[C@H](NC(=O)[C@@H]1C[C@@](C)(NC(=O)Oc2ccccc2)c2ncc(NCc3cccc(C(F)(F)F)c3)c(=O)n21)B1OC2C3CC(C[C@]2(C)O1)C3(C)C` (some centres not stated), the IC50 is 1400 nM.

By IC50 is commonly meant the midpoint of a concentration-inhibition curve. High values mean weaker potency in that assay, low ones greater potency in that assay.
